Experimental data from patent US12692259B2, “Morpholine-containing and piperazine-containing CXCR4 modulators and uses related thereto” (Emory University, priority 2021, dated 2026).

Experiments:
PAMPA assay = type: in vitro ADME; settings: pH 7.4
Description: PAMPA assay was performed by BioAssay Systems Services or Bristol Myers Squibb. The method used by BioAssay Systems Services is described below.
Stock solutions in DMSO for all compounds (10 mM) were thawed. The assay was performed in duplicate by following the PAMPA-096 procedure for sample plating. 4% Lecithin in dodecane solution was prepared by resuspending the dried lecithin with 750 μL dodecane. PBS pH 7.4 was used as the diluent. Two sets of plates and equilibrium solutions were incubated for 4 hours at room temperature. Acceptor and equilibrium solutions were analyzed in a UV plate. OD280 nm was used for High Permeability Control (chloramphenicol). OD270 nm was used for Medium Permeability Control (diclofenac) and Low Permeability Control (theophylline). OD254 nm was used for the test compounds.
Data analysis was performed by using the peak absorbance for each respective test compound and Permeability Control to determine the Permeability Rate (Pe) via the following equation: […]
where ODA is the absorbance of Acceptor Solution, ODE is the absorbance of the Equilibrium Standard, and C is determined by the equation below: […]
where Donor Volume (VD) is 0.2 cm^3, Acceptor Volume (VA) is 0.3 cm^3, and Membrane Area (Area) is 0.24 cm^2.

[1] = Metabolic stability assay, human liver microsomes (HLM); type: in vitro ADME; settings: 10 min
From the text: Controls were processed and analyzed like the test compounds.

in vitro = settings: mouse, 10 min, 3 µM, pH 7.4
Description: Metabolic stability assay was performed at Emory University's Department of Chemistry or by Bristol Myers Squibb. The method used by Emory University's Department of Chemistry is described below.
Each method was developed in the presence of an internal standard (ISTD) d5-7-ethoxy coumarin. The column temperature was maintained at 40° C. for most of the samples otherwise noted. The detection was operated in the Agilent JetStream electrospray positive ionization using multiple reaction monitoring mode (MRM).
Other MS conditions were as follows: dwell time 100 ms; gas flow 10 L/min; nebulizer pressure 45 psi; delta EMV 200 V; fragmentor voltage and collision energy for individual compounds vary.
Test compounds were dissolved in 100% DMSO or 100% MeOH to make 10 mM stock solutions. Verapamil (Sigma Aldrich) aided as a positive control and was dissolved in 100% DMSO to make 10 mM stock solutions. The 10 mM stock solution of test and control compounds were further diluted in potassium phosphate buffer (100 mM, pH 7.4) to 500 μM to ensure the organic solvent content was <0.2%. Human liver microsomes (HLMs) were purchased from Xenotech at 20 mg/mL. NADPH (Sigma Aldrich) 10 mM stocks were prepared in deionized water.
The HLM assay was prepared in a 1.5 mL Eppendorf tube with a final volume of 1100 μL for duplicate runs. Each reaction contained phosphate buffer (928.4 μL), liver microsomes (55 μL), and test compound resulting in a final concentration of 3 μM (6.6 μL of 500 μM). The reaction was initiated with 110 μL of 10 mM NADPH. […] Before centrifugation each of the aliquoted tubes were vortexed to make sure compounds were in the solution. The aliquots were centrifuged at 12,000 g for 5 min and the supernatant removed and placed in an LC-MS vial. Each time point was assessed using LC-MS and the area, based on the extracted ion, was integrated with respect to the ISTD. […] A no-NADPH negative control with test or control compound was performed in a single run (150 μL) at the longest time point. Controls were processed and analyzed like the test compounds. Each time point was run in duplicates followed by in-between blank washes to avoid the carryover and to equilibrate the column.
The MLM assay was performed using the same procedures as those described above for the HLM assay.

CXCR4 = CXCR4 (Homo sapiens, UniProt P61073); assay: cAMP assay in CXCR4-CHO-Glo cells (GloSensor, forskolin + SDF-1α); type: cell-based; set-up: expressed in transfected cells
CXCR4, sequence (P61073 whole entry): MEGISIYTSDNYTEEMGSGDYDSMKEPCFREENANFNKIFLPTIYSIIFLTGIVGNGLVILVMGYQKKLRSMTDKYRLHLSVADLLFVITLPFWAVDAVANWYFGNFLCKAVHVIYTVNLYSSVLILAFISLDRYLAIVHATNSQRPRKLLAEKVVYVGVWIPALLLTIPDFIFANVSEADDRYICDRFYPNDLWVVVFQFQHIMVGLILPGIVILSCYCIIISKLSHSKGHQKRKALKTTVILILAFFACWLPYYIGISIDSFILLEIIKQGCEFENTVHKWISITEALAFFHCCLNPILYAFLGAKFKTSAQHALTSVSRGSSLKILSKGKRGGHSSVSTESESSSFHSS
From the text: Materials, reagents, and instrument—Advanced DMEM (Gibco), trypsin EDTA (0.05%, phenol red), L-glutamine, HBSS buffer with and without Ca^2+/Mg^2+ (Gibco), antibiotic-antimycotic (Gibco), hygromycin B, and geneticin selective antibiotic (G418 sulfate) were purchased from Invitrogen. Forskolin (Tocris), SDF-1α (R&D Systems), HEPES (Sigma Aldrich), FBS (Atlanta Biologicals), D-luciferin (Gold Biotechnology), sterile 60 mm tissue culture dishes, and 96-well sterile tissue culture plates were purchased from Corning.
The assay targeted CXCR4 expressed in CHO-gloSensor cells. It monitored GPCR activation based on forskolin-stimulated cAMP production in cells. The assay used a genetically encoded biosensor with its cAMP binding domain fused to luciferase. Binding of cAMP to the cAMP binding domain changed the conformation of the biosensor, leading to the activation of luciferase. The intensity of the luciferase signal (light output) resulted from the oxidation of D-luciferin to oxyluciferin is proportional to the amount of cAMP produced in the cells.
The assay was performed in triplicate using live cells in 96-well tissue culture plates. Cells were pre-incubated in the dark at room temperature for one hour in the presence of D-luciferin. Bioluminescence was quantified before and after the agonist/antagonist addition. Stock solution of forskolin and SDF-1a, was prepared in Locke-Luc buffer. Stock solutions of the test compounds were prepared in DMSO (10 mM); they were diluted by Locke's buffer for use in the assay.
CHO-Glo cells, a cell line stably expressing the GloSensor cAMP biosensor (Promega), were transfected with cDNA encoding human CXCR4 in Pires-AcGFP1 (Clontech) and a stable cell line was isolated (CXCR4-CHO-Glo cells). The CXCR4-CHO-Glo cells were grown to confluency on 60 mm tissue culture dishes. After trypsinization, the cells were plated on 96-well plates and incubated overnight. The next day, culture media in each well was aspirated and replaced with 100 μL Locke's buffer containing 4 mM D-luciferin, followed by incubation in the dark for one hour. Before the addition of agonist/antagonist, each plate was read five times at 2 min intervals to obtain basal bioluminescence values from each well. The average of these five pre-readings was used to normalize each well's response to account for differences in GloSensor expression and cell density. After five pre-readings, cAMP formation was initiated with the addition of 50 μL solution of test compound (TC) in Locke Luc buffer containing forskoline and SDF-1α. […] Luminescence was measured immediately after the addition of the antagonist solution. The measurements were taken every two minutes for 30 minutes in kinetics mode after antagonist addition. IC50 values were calculated from the 4-parameter logistic equation using Prism GraphPad.

## C[C@H]1CN(c2cccc3c2C[C@H](CN(C)[C@H]2CCCc4cccnc42)NC3)CCO1 [EMU-318, (S)—N-methyl-N—(((R)-5-((S)-2-methylmorpholino)-1,2,3,4-tetrahydroisoquinolin-3-yl)methyl)-5,6,7,8-tetrahydroquinolin-8-amine]
PAMPA assay
  Papp at 4 h: 16.6 ×10⁻⁶ cm/s

## Cc1cnc(CN(C)C[C@H]2Cc3c(cccc3N3CCOCC3)CN2)c(C)c1 [EMU-260, (R)-1-(3,5-dimethylpyridin-2-yl)-N-methyl-N-((5-morpholino-1,2,3,4-tetrahydroisoquinolin-3-yl)methyl)methanamine]
PAMPA assay
  Papp at 4 h: 19.2 ×10⁻⁶ cm/s

## CN(C[C@H]1Cc2c(cccc2N2CCO[C@@H](CO)C2)CN1)[C@H]1CCCc2cccnc21 [EMU-322, ((R)-4-((R)-3-((methyl((S)-5,6,7,8-tetrahydroquinolin-8-yl)amino)methyl)-1,2,3,4-tetrahydroisoquinolin-5-yl)morpholin-2-yl)methanol]
PAMPA assay
  Papp at 4 h: 13.1 ×10⁻⁶ cm/s

## CN(CCCCN(C[C@H]1Cc2c(cccc2N2CCOCC2)CN1)[C@H]1CCCc2cccnc21)C1CCC(F)(F)CC1 [EMU-273, N1-(4,4-difluorocyclohexyl)-N1-methyl-N4-(((R)-5-morpholino-1,2,3,4-tetrahydroisoquinolin-3-yl)methyl)-N4-((S)-5,6,7,8-tetrahydroquinolin-8-yl)butane-1,4-diamine]
PAMPA assay
  Papp at 4 h: 22.6 ×10⁻⁶ cm/s

## CN(C[C@H]1Cc2c(cccc2N2CC3CC2CO3)CN1)[C@H]1CCCc2cccnc21 (stereo in doubt) [EMU-325, (S)—N—(((R)-5-((1R,4R)-2-oxa-5-azabicyclo[2.2.1]heptan-5-yl)-1,2,3,4-tetrahydroisoquinolin-3-yl)methyl)-N-methyl-5,6,7,8-tetrahydroquinolin-8-amine]
PAMPA assay
  Papp at 4 h: 12.3 ×10⁻⁶ cm/s

## CN(C[C@H]1Cc2c(cccc2N2CCOCC2)CN1)[C@H]1CCOc2cccnc21 [EMU-319, (4S)—N-methyl-N-((5-morpholino-1,2,3,4-tetrahydroisoquinolin-3-yl)methyl)-3,4-dihydro-2H-pyrano[3,2-b]pyridin-4-amine]
PAMPA assay
  Papp at 4 h: 16 ×10⁻⁶ cm/s

## CN(C)C(=O)N1CCN(c2cccc3c2C[C@H](CN(C)[C@H]2CCCc4cccnc42)NC3)CC1 [EMU-327, N,N-dimethyl-4-((R)-3-((methyl((S)-5,6,7,8-tetrahydroquinolin-8-yl)amino)methyl)-1,2,3,4-tetrahydroisoquinolin-5-yl)piperazine-1-carboxamide]
[1]
  Liver Microsomes % rem. @ 10 min. H: 11.00%
In vitro
  Liver Microsomes % rem. @ 10 min. M: 38.10%
PAMPA assay
  Papp at 4 h: 12.2 ×10⁻⁶ cm/s
CXCR4
  IC50: 0.684 µM

## CN(C[C@H]1Cc2c(cccc2N2CCN(C(N)=O)CC2)CN1)[C@H]1CCCc2cccnc21 [EMU-326, 4-((R)-3-((methyl((S)-5,6,7,8-tetrahydroquinolin-8-yl)amino)methyl)-1,2,3,4-tetrahydroisoquinolin-5-yl)piperazine-1-carboxamide]
[1]
  Liver Microsomes % rem. @ 10 min. H: 87.1%
In vitro
  Liver Microsomes % rem. @ 10 min. M: 78.3%
PAMPA assay
  Papp at 4 h: 7.6 ×10⁻⁶ cm/s
CXCR4
  IC50: 0.492 µM

## C[C@H]1COCCN1c1cccc2c1C[C@H](CN(C)[C@H]1CCCc3cccnc31)NC2 [EMU-339, (S)—N-methyl-N—(((R)-5-((S)-3-methylmorpholino)-1,2,3,4-tetrahydroisoquinolin-3-yl)methyl)-5,6,7,8-tetrahydroquinolin-8-amine]
PAMPA assay
  Papp at 4 h: 17.1 ×10⁻⁶ cm/s

## C[C@@H]1CN(c2cccc3c2C[C@H](CN(C)[C@H]2CCCc4cccnc42)NC3)CCO1 [EMU-317, (S)—N-methyl-N—(((R)-5-((R)-2-methylmorpholino)-1,2,3,4-tetrahydroisoquinolin-3-yl)methyl)-5,6,7,8-tetrahydroquinolin-8-amine]
PAMPA assay
  Papp at 4 h: 15.5 ×10⁻⁶ cm/s

## C[C@@H]1COCCN1c1cccc2c1C[C@H](CN(C)[C@H]1CCCc3cccnc31)NC2 [EMU-338, (S)—N-methyl-N—(((R)-5-((R)-3-methylmorpholino)-1,2,3,4-tetrahydroisoquinolin-3-yl)methyl)-5,6,7,8-tetrahydroquinolin-8-amine]
PAMPA assay
  Papp at 4 h: 15.7 ×10⁻⁶ cm/s

## CN(C[C@H]1Cc2c(cccc2N2C[C@H]3CC[C@@H](C2)O3)CN1)[C@H]1CCCc2cccnc21 [EMU-295, (S)—N—(((R)-5-((1R,5S)-8-oxa-3-azabicyclo[3.2.1]octan-3-yl)-1,2,3,4-tetrahydroisoquinolin-3-yl)methyl)-N-methyl-5,6,7,8-tetrahydroquinolin-8-amine]
PAMPA assay
  Papp at 4 h: 16.5 ×10⁻⁶ cm/s

## CCN1CCN(CCCN(C[C@H]2Cc3c(cccc3N3CCOCC3)CN2)[C@H]2CCCc3cccnc32)CC1 [EMU-275, (S)—N-(3-(4-ethylpiperazin-1-yl)propyl)-N—(((R)-5-morpholino-1,2,3,4-tetrahydroisoquinolin-3-yl)methyl)-5,6,7,8-tetrahydroquinolin-8-amine]
PAMPA assay
  Papp at 4 h: 10 ×10⁻⁶ cm/s

## c1cnc2c(c1)CCC[C@@H]2N(CCCN1CCNCC1)C[C@H]1Cc2c(cccc2N2CCOCC2)CN1 [EMU-184, (S)—N—(((R)-5-morpholino-1,2,3,4-tetrahydroisoquinolin-3-yl)methyl)-N-(3-(piperazin-1-yl)propyl)-5,6,7,8-tetrahydroquinolin-8-amine]
PAMPA assay
  Papp at 4 h: 3 ×10⁻⁶ cm/s
